Tested on: IgE
Assay: Secondary antigen-specific IgE response to TNP-KLH on alum
Type: in vivo, mouse (Balb/c female)
Conditions: 20 μg IP 3x daily days 24 and 25
Description: ELISA (enzyme linked immunosorbant assay) measurements of IgE are as follows. About 5 μg of B1E3 antibody in 100 μl borate buffered saline (pH8.5) is added to wells of a NuncImmulon II 96 well plate (DiRuscio & Assoc., St. Louis, Mo.) at 37° C. for 90 minutes. The non-bound antibody is removed by flicking the plate. Unreacted sites on the plastic plate are blocked by adding about 200 μl of a 2% solution of newborn bovine serum (NBS) in PBS at 37° C. for 60 minutes. The standard IgE (or an unknown murine serum sample) is diluted to between about 4 ng/ml-256 ng/ml in Hanks-HS (20 mM Hepes, 2% NBS in Hanks Balanced Salt Solution, Gibco, Grand Island, N.Y.) or to 1/200 to 1/1000 in Hanks-HS respectively. 100 μl of standard (or unknown dilutions) are added in triplicate to the wells of the plate and allowed to absorb to B1E3 antibody at about 37° C. for 2-4 hours. The solution is removed by flicking the plate and each well is washed with about 0.5 ml 0.05% Tween 20-PBS 5 times. About 100 μl of biotinylated R1E4, called the primary antibody, diluted to 200 ng/ml is added to all wells and incubated at about 4° C. overnight. The solution is removed by flicking the plate and washed 5 times as described above. The developing reagent (Avidin and biotin-horse radish peroxidase) is incubated in 2% NBS in PBS at ambient temperature for 30 minutes, according to manufacturer's specifications (Vector Laboratories, Burlingame, Calif.). About 100 μl of developing reagent is added to each well and incubated at ambient temperature for 30 minutes. Colorimetric substrate for the developing reagent (ABTS peroxidase substrate system, KPL, Gaithersburg, Md.) is prepared by mixing equal volumes of solutions A and B and incubating at ambient temperature for 60 minutes. The developing reagent solution is removed by flicking the plate and washed 5 times as described above. About 100 μl of the mixture of substrates is added to each well and incubated at ambient temperature for 60 minutes. The optical density of each well is determined on a BioTek ELISA reader (Biotek Instruments, Inc., Burlington, Vermont) and the absorbance data transferred electronically to a DEC VAX mainframe computer. A standard curve is fitted to the IgE standard optical densities using straight line, linear regression statistical fits. IgE in the unknown serum samples is determined by comparing the optical density of the unknown to the standard curve and multiplying that number by the dilution of serum used in the assay.
Stimulation of a secondary antigen-specific IgE response in mouse with haptenated antigen absorbed on alum is inhibited by (±) methyl 11α,16-dihydroxy-16-methyl-9-oxoprosta-5Z,13E-dien-1-oate. Three groups of 7 Balb/c female mice were treated as follows. […]

## CCCCC(C)(O)C/C=C/[C@H]1[C@H](O)CC(=O)[C@@H]1C/C=C\CCCC(=O)OC (mixture of isomers) [(±) methyl 11α,16-dihydroxy-16-methyl-9-oxoprosta-5Z,13E-dien-1-oate]
  secondary IgE response: inhibited from the synthesis of a secondary IgE response
Day 28, p < .02 (boosted control 28,568)
  IgE ± SD: 14,448 ± 4926 ng/ml
Day 30, p < .016 (boosted control 22,564)
  IgE ± SD: 7564 ± 1528 ng/mL
Day -1 baseline before treatment
  IgE ± SD: 1487 ± 138 ng/mL
